Usually MIC stands for the lowest concentration that inhibits growth of the organism.

Here are results for four molecules from publication PMC12442081, “Combating Fuel Biocontamination: Tailored Antimicrobial Peptides and an Innovative Delivery Strategy” (ACS Applied Bio Materials, 2025).

Each structure is given as a SMILES string.

The nature of data set [1]: HPLC retention time as a function of peptide hydrophobicity. To be noted: chromatographic, Polaris 5 C18-A reverse phase, 0.1% TFA water / 0.1% TFA acetonitrile gradient, 30 min, 300 μM peptide. Type of data set: physicochemical. The method, then: The purity of the peptides was ascertained by high-performance liquid chromatography (HPLC) using Polaris 5 C18-A […] × 4.6 mm reverse phase Zorbax columns from Agilent Technologies. The buffer system contained 0.1% (v/v) TFA in 100% water and 0.1% (v/v) TFA in 100% acetonitrile. Each peptide sample contained 300 μM peptides dissolved in an acetonitrile–water (1:4) mixture. A constant gradient of the two solvent systems was used to generate the chromatogram for 30 min after sample injection.

Data set [2] concerns Roseomonas mucosa (RM). The data set is described as follows: Effectiveness of peptides on spiked fuel samples (aqueous layer). The data set is classed as cell-based. Further details: key: (+) =1 (implying peptide activity in fuel environment); (X) = 0 (implying no activity in the desired range, indicated by microbial proliferation); Fuel x = -1(implying no activity in fuel environment). The settings on record: initial screening in spiked fuel. The method, then: (§1) To study the partitioning of microbes in fuel tanks, filter-sterilized fuel was mixed with BH medium in a 1:1 (v/v) ratio. The inoculum was added to the aqueous phase at the bottom to simulate growth in the aqueous layer of fuel tanks and incubated aerobically at 30 °C for 30 days. Visible growth was assessed, and aliquots from both the aqueous and fuel phases were plated on nutrient agar plates to evaluate microbial growth. Peptides were initially added to the aqueous layer of microbially spiked fuel samples for screening the effectiveness in the fuel environment. The study was further extended over a longer duration, and incubated under aerobic conditions at 30 °C for 30 days. Microbial growth was monitored at regular intervals by plating aliquots from the aqueous layer on the nutrient agar plates.
(§2) The engineered peptides were administered at their respective MICs to the aqueous layer of simulated fuel samples, and samples from both the aqueous and solvent (fuel) layers were removed at intervals of 7, 14, 21, and 30 days and plated on LBA plates to assess cell viability (Table S5).

Data set [3] has as its system Kocuria rosea (KR). The description is as above. The data set is classed as cell-based. On the set-up: key: (+) =1 (implying peptide activity in fuel environment); (X) = 0 (implying no activity in the desired range, indicated by microbial proliferation); Fuel x = -1(implying no activity in fuel environment). To be noted: initial screening in spiked fuel. The method, then:
as §1, §2

Data set [4] deals with Sphingomonas paucimobilis (SP). The description is as above. On the set-up: key: (+) =1 (implying peptide activity in fuel environment); (X) = 0 (implying no activity in the desired range, indicated by microbial proliferation); Fuel x = -1(implying no activity in fuel environment). The data set is classed as cell-based. To be noted: initial screening in spiked fuel. The method, then: as §1, §2

Data set [5] relates to Macrococcus caseolyticus (MC). Described as above. The data set is classed as cell-based. On the set-up: key: (+) =1 (implying peptide activity in fuel environment); (X) = 0 (implying no activity in the desired range, indicated by microbial proliferation); Fuel x = -1(implying no activity in fuel environment). The settings on record: initial screening in spiked fuel. The method, then: as §1, §2

In data set [6] the test system is Hormoconis resinae (HR). The description is as above. The data set is classed as cell-based. On the set-up: key: (+) =1 (implying peptide activity in fuel environment); (X) = 0 (implying no activity in the desired range, indicated by microbial proliferation); Fuel x = -1(implying no activity in fuel environment). The settings on record: initial screening in spiked fuel. The method, then: as §1, §2

Data set [7] has as its system Bacillus licheniformis (BL). The data set is described as above. The data set is classed as cell-based. On the set-up: key: (+) =1 (implying peptide activity in fuel environment); (X) = 0 (implying no activity in the desired range, indicated by microbial proliferation); Fuel x = -1(implying no activity in fuel environment). To be noted: initial screening in spiked fuel. The method, then:
as §1, §2

Data set [8] relates to Pseudomonas aeruginosa (PA). The description is as above. On the set-up: key: (+) =1 (implying peptide activity in fuel environment); (X) = 0 (implying no activity in the desired range, indicated by microbial proliferation); Fuel x = -1(implying no activity in fuel environment). The settings on record: initial screening in spiked fuel. Type of data set: cell-based. The method, then: as §1, §2

The subject of data set [9] is Dermacoccus nishinomiyaensis (DN). Described as above. On the set-up: key: (+) =1 (implying peptide activity in fuel environment); (X) = 0 (implying no activity in the desired range, indicated by microbial proliferation); Fuel x = -1(implying no activity in fuel environment). The settings on record: initial screening in spiked fuel. Type of data set: cell-based. The method, then: as §1, §2

In data set [10] the test system is Micrococcus yunnanensis (MY). The data set is described as above. Type of data set: cell-based. Further details: key: (+) =1 (implying peptide activity in fuel environment); (X) = 0 (implying no activity in the desired range, indicated by microbial proliferation); Fuel x = -1(implying no activity in fuel environment). The settings on record: initial screening in spiked fuel. The method, then:
as §1, §2

The subject of data set [11] is Kocuria rosea (KR) ATCC 186. The data set is classed as cell-based. The method, then:
(§3) All of the bacterial species were grown overnight at 37 °C in LB broth. 10^7 CFU/mL of cells were resuspended in fresh culture and grown until the mid log phase. , The bacterial cells were adjusted to a concentration of 5 × 10^5 CFU/mL to quantify the MIC. Equal volumes of the respective bacterial cultures were incubated with the serially diluted peptides in 96-well microtiter plate and incubated overnight at 37 °C in ambient air. Microorganisms without peptides were treated as the positive control, while uninoculated broth was used as the negative control. The MIC was taken as the lowest peptide concentration at which observable bacteria growth was inhibited, as measured by a microplate reader (Biotek Synergy H1 microplate reader). Experiments were performed in triplicates, and the mean MIC values were determined. A similar study was performed to understand the effect of peptide purity, i.e., ranging from 70 to 95%, on the peptide MIC.

In data set [12] the test system is Sphingomonas paucimobilis (SP). The data set is classed as cell-based. The method, then: as §3
Data set [13] deals with Bacillus licheniformis (BL) ATCC 14580. The data set is classed as cell-based. The settings on record: ATCC 14580. The method, then: as §3
For data set [14], the system named is microbial clusters MY, KR, DN, MC, BL, RM, SP, PA, HR. The data set can be described thus: Broad-spectrum activity score (in-house scoring matrix). To be noted: sum over 9 microbial clusters: (+) = 1, (X) = 0, Fuel x = -1. The method, then:
Table S4. Summarizing the broad-spectrum activity of the peptides, considering the MIC value/ efficacy to control microbial growth upon fuel co-incubation
Peptides Bacterial clusters Fungal
Actinobacteria Firmicutes Proteobacteria Asco- […]
Peptides identified based on the scoring matrix, where (+) =1 (implying peptide activity in fuel environment); (X) = 0 (implying no activity in the desired range, indicated by microbial proliferation); Fuel x = -1(implying no activity in fuel environment).
Clearly, P17 is the best performing peptide in vitro across diverse microbial phyla as well as when incubated in the fuel environment. Based on the activity of the selected peptides, the best

Data set [15] concerns Micrococcus yunnanensis (MY) ATCC 12698. Type of data set: cell-based. The method, then: as §3
Data set [16] deals with Macrococcus caseolyticus (MC) ATCC 13548. Type of data set: cell-based. The method, then: as §3
The test system of data set [17] is Dermacoccus nishinomiyaensis (DN) ATCC 29093. The data set is classed as cell-based. The method, then: as §3

`CC(C)C[C@H](NC(=O)[C@@H](N)Cc1ccc(O)cc1)C(=O)N1CCC[C@H]1C(=O)N[C@@H](Cc1c[nH]c2ccccc12)C(=O)N[C@@H](CCCCN)C(=O)N[C@@H](Cc1c[nH]c2ccccc12)C(=O)N1CCC[C@H]1C(=O)N[C@@H](Cc1c[nH]c2ccccc12)C(=O)N[C@@H](Cc1c[nH]c2ccccc12)C(=O)N1CCC[C@H]1C(=O)N[C@@H](Cc1c[nH]c2ccccc12)C(=O)N[C@@H](CCCNC(=N)N)C(=O)N[C@@H](CCCNC(=N)N)C(=O)O` [P14]: the “R t, retention time of peptide on HPLC column as a function of peptide hydrophobicity” value (“R t, retention time of peptide” for short) in data set [1] is given as 12.279 min. Also, the “activity considering MIC value/efficacy upon fuel co-incubation” value in data set [2] is “X”; in [3] it was “Fuel x”; in [4], “+”; in [5], “X”; in [6], “X”; in data set [7] it was “+”. The “activity considering MIC value/efficacy upon fuel co-incubation” value in [8], in data set [9] and in [10] was “X” throughout. Further, the MIC in data set [11] came to 0.9 µM; in data set [12] it was 0.9 µM; in [13], 3.9 µM. In addition, the Score in data set [14] is 1.

With `CC[C@H](C)[C@H](N)C(=O)N[C@@H](CC(C)C)C(=O)N[C@@H](Cc1ccccc1)C(=O)N[C@@H](Cc1c[nH]c2ccccc12)C(=O)N[C@@H](CCCCN)C(=O)N[C@@H](Cc1c[nH]c2ccccc12)C(=O)N1CCC[C@H]1C(=O)N[C@@H](Cc1c[nH]c2ccccc12)C(=O)N[C@@H](Cc1c[nH]c2ccccc12)C(=O)N1CCC[C@H]1C(=O)N[C@@H](Cc1c[nH]c2ccccc12)C(=O)N[C@@H](CCCNC(=N)N)C(=O)N[C@@H](CCCNC(=N)N)C(=O)O` [P16], the “R t, retention time of peptide” value in data set [1] worked out at 14.075 min. Moreover, the “activity considering MIC value/efficacy upon fuel co-incubation” value in data set [2] is on record as “X”; in [3] it was “+”; in data set [4] it was “+”; in data set [5], “X”; in data set [6] it was “X”; in data set [7] it was “+”. Also, the “activity considering MIC value/efficacy upon fuel co-incubation” value in data set [8] is “X”; in [9] it was “X”; in [10], “+”. Moreover, the MIC amounted to 0.9 µM in [15]; 1.9 µM in data set [11]; 0.9 µM in [12]; 0.9 µM in data set [13]; 125 µM in data set [16]. The Score in data set [14] was determined as 4.

With `CC[C@H](C)[C@H](N)C(=O)N[C@@H](CC(C)C)C(=O)N[C@H](C(=O)N[C@@H](Cc1c[nH]c2ccccc12)C(=O)N[C@@H](CCCCN)C(=O)N[C@@H](Cc1c[nH]c2ccccc12)C(=O)N1CCC[C@H]1C(=O)N[C@@H](Cc1c[nH]c2ccccc12)C(=O)N[C@@H](Cc1c[nH]c2ccccc12)C(=O)N1CCC[C@H]1C(=O)N[C@@H](Cc1c[nH]c2ccccc12)C(=O)N[C@@H](CCCNC(=N)N)C(=O)N[C@@H](CCCNC(=N)N)C(=O)O)[C@@H](C)CC` [P18], the “R t, retention time of peptide” value in data set [1] was 13.314 min. The “activity considering MIC value/efficacy upon fuel co-incubation” value is given as “X” in data set [2]; “+” in data set [3]; “+” in data set [4]; “X” in [5]; “X” in data set [6]; “+” in data set [7]. The “activity considering MIC value/efficacy upon fuel co-incubation” value in [8] is recorded as “X”; in [9], “Fuel x”; in data set [10], “+”. Besides, the MIC was found to be 0.9 µM in data set [15]; 0.9 µM in data set [11]; 0.9 µM in data set [12]; 1.9 µM in data set [13]; 31.25 µM in data set [16]; 0.9 µM in [17]. Moreover, in data set [14], the Score was 3.

As to `CC[C@H](C)[C@H](N)C(=O)N[C@@H](CC(C)C)C(=O)N[C@@H](CC(C)C)C(=O)N[C@@H](Cc1c[nH]c2ccccc12)C(=O)N[C@@H](CCCCN)C(=O)N[C@@H](Cc1c[nH]c2ccccc12)C(=O)N1CCC[C@H]1C(=O)N[C@@H](Cc1c[nH]c2ccccc12)C(=O)N[C@@H](Cc1c[nH]c2ccccc12)C(=O)N1CCC[C@H]1C(=O)N[C@@H](Cc1c[nH]c2ccccc12)C(=O)N[C@@H](CCCNC(=N)N)C(=O)N[C@@H](CCCNC(=N)N)C(=O)O` [P19], in data set [1], the “R t, retention time of peptide” value turned out to be 13.667 min. The “activity considering MIC value/efficacy upon fuel co-incubation” value in data set [2] was “X”; in data set [3], “Fuel x”; in data set [4] it was “+”; in data set [5], “X”; in data set [6], “X”; in data set [7] it was “+”. Besides, the “activity considering MIC value/efficacy upon fuel co-incubation” value in data set [8] is listed as “X”; in data set [9], “+”; in [10], “+”. Also, the MIC in data set [15] was determined as 0.9 µM; in data set [11] it was 3.9 µM; in data set [12] it was 0.9 µM; in data set [13] it was 1.9 µM; in [17], 0.9 µM. The Score in data set [14] was 3.
